Test results from paper PMC11788587, “Validating Low‐Dose Iohexol as a Marker for Glomerular Filtration Rate by In Vitro and In Vivo Studies” (Clinical and Translational Science, 2025).

Legend:
[1] = target: T1, hOATP1B1 (Homo sapiens, UniProt Q9Y6L6); assay: Inhibition of hOATP1B1-mediated 3H-estrone sulfate uptake, stably transfected 293 cells; format: cell-based; conditions: substrate 0.01 μM 3H-estrone sulfate, median (95% CI)
T1 construct: expressed in transfected cells; host or cells: 293 cells (control: empty vector)
T1 sequence (Q9Y6L6 1-691): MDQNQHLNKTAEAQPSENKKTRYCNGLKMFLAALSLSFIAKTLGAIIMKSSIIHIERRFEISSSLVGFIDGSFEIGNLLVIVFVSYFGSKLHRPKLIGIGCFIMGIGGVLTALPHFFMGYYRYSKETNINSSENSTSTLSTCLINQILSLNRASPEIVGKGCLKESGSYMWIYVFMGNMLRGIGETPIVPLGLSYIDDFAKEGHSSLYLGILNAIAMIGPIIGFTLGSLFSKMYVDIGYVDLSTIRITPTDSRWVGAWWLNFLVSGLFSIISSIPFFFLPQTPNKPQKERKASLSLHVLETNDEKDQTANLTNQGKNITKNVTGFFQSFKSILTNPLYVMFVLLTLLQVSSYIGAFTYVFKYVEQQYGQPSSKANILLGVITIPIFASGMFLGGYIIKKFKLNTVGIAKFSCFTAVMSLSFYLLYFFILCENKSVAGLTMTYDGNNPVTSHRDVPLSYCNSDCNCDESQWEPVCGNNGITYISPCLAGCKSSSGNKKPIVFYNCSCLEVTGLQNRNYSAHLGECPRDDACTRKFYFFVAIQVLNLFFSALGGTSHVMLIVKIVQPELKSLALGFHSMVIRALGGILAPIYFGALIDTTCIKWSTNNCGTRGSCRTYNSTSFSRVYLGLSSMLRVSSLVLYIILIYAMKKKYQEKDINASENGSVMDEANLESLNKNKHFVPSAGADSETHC
From the text: We characterized the inhibitory potential of iohexol on major drug transporters recommended by regulatory agencies, which were previously assessed in a clinical transporter phenotyping cocktail study. These transporters include hOAT1, hOAT3, hOCT1, hOCT2, hMATE1, hMATE2K, human organic anion transporter polypeptides (hOATP)1B1, hOATP1B3, and human multidrug resistance protein (hMDR)1. Additionally, we investigated whether iohexol is a substrate for any of the renal transporters among these, including hOAT1/3, hOCT1/2, and hMATE1/2K. Cell‐based uptake assays were used to assess the activities of hOAT1/3, hOCT1/2, hMATE1/2K, and hOATP1B1/1B3. Inside‐out membrane vesicle uptake assays were used to evaluate the activity of hMDR1.
To determine the maximal inhibitory potential of iohexol, intracellular accumulation of a standard substrate was measured with and without the clinically relevant highest concentrations of iohexol. Control inhibitors were tested in each experiment.
In all subsequent in vitro studies, control experiments were conducted to validate the results. […] Each condition, including cells or vesicles with the transporter and their respective controls, was analyzed in at least three replicates. […]
Uptake assays were carried out with stably transfected 293 cells expressing hOATP1B1 or hOATP1B3, as well as cells containing an empty vector, using the method described by Hsin CH, et al..^1 For the inhibition assays, cells were incubated with the radiolabeled standard substrates specific to each transporter: 0.01 μM ^3H-estrone sulfate for hOATP1B1, and 0.02 μM ^3H-bromosulphophthalein (BSP) for hOATP1B3. […] The accumulation of radio-labelled probe substrates (^3H) in the cell lysate is determined using a Tri-Carb 2810 liquid scintillation counter (PerkinElmer, Waltham, MA, USA) as described previously.^1 Cellular protein amount was determined in parallel from 6 paired wells per cell line and experimental day, using the Bradford method.^2 The 1X lysis buffer (5X lysis buffer from Promega, diluted 1+4 [v/v] in ddH2O) was used as the lysis buffer. […]

[2] = set-up: method as in PMID 32989831, PMID 30449032; conditions: cited from earlier work

- Inhibitory effect (% reduction of specific activity) ([1]; 20 mM iohexol): no notable inhibitory effects
- inhibition at 1 min, 2 mM ([1]; human, stably transfected 293 cells expressing hOATP1B1, probe 3H-estrone sulfate, 2 mM iohexol, read-out: Inhibitory effect (% reduction of specific activity)): -6.9%
- inhibition at 1 min, 20 mM ([1]; human, stably transfected 293 cells expressing hOATP1B1, probe 3H-estrone sulfate, 20 mM iohexol, read-out: Inhibitory effect (% reduction of specific activity)): 5.5%
Compound: CC(=O)N(CC(O)CO)c1c(I)c(C(=O)NCC(O)CO)c(I)c(C(=O)NCC(O)CO)c1I (stereo not shown) [iohexol]
- Iohexol clearance under OCT2 and MATE inhibitors [2]: unaffected
